Data published in paper PMC10350552, “Investigation of the GnRH antagonist degarelix isomerization in biological matrices” (Pharmacology Research & Perspectives, 2023).
Where a SMILES comes first, the peptide text is derived from it. [ ]: non-standard residue; d: D form. The star is where a group is joined. dPhe(4-NHCONH2) = NC(=O)Nc1ccc(C[C@@H](N)C(=O)O)cc1; Dihydroorotyl(S) = O=C1C[C@@H](C(=O)*)NC(=O)N1; dPhe(4-Cl) = N[C@H](Cc1ccc(Cl)cc1)C(=O)O; Phe(4-NH2) = Nc1ccc(C[C@H](N)C(=O)O)cc1; d2Nal = N[C@H](Cc1ccc2ccccc2c1)C(=O)O; Lys(iPr) = CC(C)NCCCC[C@H](N)C(=O)O; X1 = O=C1NC(=O)[C@H](CC(=O)*)N1; d3Pal = N[C@H](Cc1cccnc1)C(=O)O

Assays:
[1] = test system: human cytochrome P450 system; details: cited from earlier work
[2] = test system: human serum albumin (HSA); details: cited from earlier work
From the text: After its approval by FDA in 2008, degarelix became the most widely used GnRH antagonist in patients with advanced prostate cancer.[17] The advantages of degarelix are its high affinity to the GnRH receptor, increased hydrophilicity, and decreased propensity to form gels. As a result, degarelix has better bioavailability than the previous GnRH antagonists. These improved characteristics are related to the presence of additional 4‐[(aminocarbonyl)amino]‐phenylalanine [Aph(Cbm)] and 4‐[(dihydroorotyl)amino]‐phenylalanine [Aph(Hor)] moieties, which afford multiple hydrogen‐bonding sites and permi ...

[3] = in vitro; details: male, human, plasma, pH 7.8
Method: Degarelix or 5‐Hyd‐degarelix test solutions (10 μL of 180 μg/mL degarelix or 5‐Aph(Hyd)‐degarelix in 20% acetonitrile) were each mixed with 890 μL of human plasma, Dulbecco buffer (5 mM NaH2PO4, 20 mM Na2HPO4, 5 mM KCl, 120 mM NaCl, adjusted to pH 7.4 with NaOH), 4.5% human serum albumin solution (HSA solution), and human serum albumin solution with 0.21 mg/mL warfarin: 3960 μL HSA solution +40 μL warfarin stock solution (21 mg warfarin in 1 mL water)to a final concentration of 2000 ng/mL of each analyte and 0.2% of acetonitrile. […] The samples were then diluted with 10 μL of the solution of 0.1% of formic acid in 20% acetonitrile and 70 μL of acetonitrile. The solutions were shaken and centrifuged. To 50 μL of the supernatant, 20 μL of water and 0.2% of formic acid were added and the solution was used for HPLC analysis. All the experiments were repeated three times.
The ANALYST software was used to integrate all peaks automatically by use of the IntelliQuan algorithm and to calculate the calibration curves of degarelix and 5‐Aph(Hyd)‐degarelix by linear regression with a weighting of 1/x ^2. The parameters for peak integrations were adapted for all samples in each analytical batch. The ANALYST software was used to calculate the concentrations of the test and QC samples based on the corresponding calibration curves.

[4] = in vivo; cited from earlier work
[5] = Stability in 4.5% human serum albumin (HSA) solution without warfarin; format: in vitro ADME; details: 37°C, 2000 ng/mL, up to 48 h
From the text: (§1) The solutions were shaken and centrifuged. […] All the experiments were repeated three times.

[6] = Stability in HSA solution with warfarin; format: in vitro ADME, human; details: 37°C, 2000 ng/mL, up to 48 h
From the text: as §1

| remaining at 8 h, 2000 ng/mL [3] | remaining at 24 h, 2000 ng/mL [3] | remaining at 32 h, 2000 ng/mL [3] | remaining at 48 h, 2000 ng/mL [3] | Change in the 5-Aph(Hyd)-degarelix content ([5]; 5-Aph(Hyd)-degarelix in 4.5% HSA solution without warfarin) | Formation of 5-Aph(Hyd)-degarelix from degarelix ([5]; degarelix in 4.5% HSA solution without warfarin, HPLC-MS/MS) | Change in the 5-Aph(Hyd)-degarelix content ([6]; 5-Aph(Hyd)-degarelix in HSA solution with warfarin) | Formation of 5-Aph(Hyd)-degarelix from degarelix ([6]; degarelix in 4.5% HSA solution with 0.21 mg/mL warfarin (equimolar to albumin), HPLC-MS/MS) | Structure (SMILES) | Substrate for the human cytochrome P450 system [1] | Binding to human serum albumin (HSA) [2] | Time to reach the maximum concentration in the blood [4] |
| --- | --- | --- | --- | --- | --- | --- | --- | --- | --- | --- | --- |
| 104% | 92% | 91% | 74% | – | – | – | – | CC(=O)N[C@H](Cc1ccc2ccccc2c1)C(=O)N[C@H](Cc1ccc(Cl)cc1)C(=O)N[C@H](Cc1cccnc1)C(=O)N[C@@H](CO)C(=O)N[C@@H](Cc1ccc(NC(=O)[C@@H]2CC(=O)NC(=O)N2)cc1)C(=O)N[C@H](Cc1ccc(NC(N)=O)cc1)C(=O)N[C@@H](CC(C)C)C(=O)N[C@@H](CCCCNC(C)C)C(=O)N1CCC[C@H]1C(=O)N[C@H](C)C(N)=O [degarelix] (Ac-[d2Nal][dPhe(4-Cl)][d3Pal]S[Phe(4-NH2)](Dihydroorotyl(S))[dPhe(4-NHCONH2)]L[Lys(iPr)]P[dA]-NH2) | not a substrate | 76.3% | 37 to 42 h |
| 103% | 93% | 91% | 80% | we did not see any change | No 5‐Aph(Hyd)‐degarelix was observed | we did not see any change | No 5‐Aph(Hyd)‐degarelix was observed | CC(=O)N[C@H](Cc1ccc2ccccc2c1)C(=O)N[C@H](Cc1ccc(Cl)cc1)C(=O)N[C@H](Cc1cccnc1)C(=O)N[C@@H](CO)C(=O)N[C@@H](Cc1ccc(NC(=O)C[C@@H]2NC(=O)NC2=O)cc1)C(=O)N[C@H](Cc1ccc(NC(N)=O)cc1)C(=O)N[C@@H](CC(C)C)C(=O)N[C@@H](CCCCNC(C)C)C(=O)N1CCC[C@H]1C(=O)N[C@H](C)C(N)=O [5‐Aph(Hyd)‐degarelix] (Ac-[d2Nal][dPhe(4-Cl)][d3Pal]S[Phe(4-NH2)](X1)[dPhe(4-NHCONH2)]L[Lys(iPr)]P[dA]-NH2) | – | – | – |
